“Also recorded” adds a separate entry of the source.

The record followed here is patent US20240108734A1, “METHODS FOR TREATING AND AMELIORATING CANCER” (The Regents of the University of California, priority 2021, published 2024).

The subject of data set [1] is beta-catenin. Put plainly: FACS analysis of activated beta-catenin in LSC engrafted mice. The class given is in vivo, human. The following applies: LSC engrafted mice BM; compared with vehicle controls. From the text: A lentiviral TCF/LEF reporter was utilized in human blast crisis CML cells, K562^1. Lentiviral pCDH backbone, ADAR1^WT, shControl, and shADAR1 K562 stable cell lines were transduced with pGreenFire1-TCF/LEF1 reporter (SBI) lentivirus for 72-hours and analyzed using CellTiter-Glo and One-Glo luciferase assays (Promega). Mean fluorescence intensity (MFI) of activated beta-catenin in human CD45^+ cells, HSCs (CD45^+CD34^+CD38^− Lin) and HPCs (CD45^+CD34^+[…] Lin) from engrafted mouse bone marrow and spleen was analyzed with a Miltenyi Biotec MACS Quant flow cytometer after staining with lineage, CD45, CD34 and CD38 (BD antibodies) as well as LIVE/DEAD stain, followed by 1% paraformaldehyde fixation, permeabilization with saponin, and staining with an anti-active beta-catenin antibody (Millipore cat #05-665, and BD custom conjugation) (see Supplementary Appendix).
To assess WNT/beta-catenin activation in response to ADAR1 upregulation, a lentiviral TCF/LEF reporter was utilized in human blast crisis CML cells, K562^26. […] A minimum of 50,000 cells were plated in duplicate, lysed according to the manufacturer's protocol, and measured using preloaded protocols on a Promega GloMax Discover Microplate Reader. One-Glo luciferase readouts were normalized to corresponding CellTiter-Glo values. […]
(A flow cytometer gives signals particle by particle.)

Data set [2] concerns ADAR1-mediated RNA editing. Put plainly: RNA-seq quantification of ADAR1-mediated A-to-I RNA editing in treated BC CML mice. The class given is in vivo. The following applies: human cells from imetelstat treated LSC mouse models; p=0.037. The procedure: For gene expression and RNA editing analysis, RNA editing sites were identified in REDIportal^34 (see the Supplementary Appendix). […] Gene Set Enrichment Analysis was performed with the Bioconductor package GSVA (see the Supplementary Appendix)^36. For in vitro and in vivo experiments, the Student's t-test was utilized to evaluate statistical significance of normally distributed data and Wilcoxon tests were utilized for non-normally distributed data with a p value of <0.05.
To quantify adenosine-to-inosine (A-to-I) RNA editing events induced by ADAR1, RNA reads were aligned using 2-pass alignment with STAR 2.5.2b 2-pass alignment. […] All sites were kept if a minimum of three alternative allele carrying reads and ten total reads and a minimum allele frequency of 0.10 were present. […] We only predicted RNA editing sites with >10 reads/site to compare mismatches and excluded sites that were identified as DNA variants. […] To account for multiple testing, adjusted p-values were calculated using the Benjamini-Hochberg procedure and genes with events below an adjusted p-value of 0.05 were called significant and retained in the final lists.
FIG. 5H. A boxplot depicting detectable RNA edits per million aligned reads in human CD45^+ cells derived from vehicle (red), mismatch control (blue) and imetelstat (green) treated BC CML mouse models. […]

Data set [3] has as its system normal cord blood CD34+ cells. Put plainly: Normal HSC (cord blood CD34+) engrafted mouse model. The class given is in vivo, mice. How it is done: FIG. 9A-B graphically illustrate data showing that normal HSC mouse xenograft models were established with normal cord blood CD34^+ cells by intrahepatic injection into neonatal Rag2^−/− c^−/− mice; FACS analysis of mice treated with either vehicle (0.9% NS), mismatch control (30 mg/kg) or imetelstat (30 mg/kg) followed by quantification of human CD45^+ cells in BM (FIG. 9A) and in spleen (FIG. 9B);

The test system of data set [4] is beta-catenin. Put plainly: FACS analysis of beta-catenin in normal HSC engrafted mouse model. The class given is in vivo. The conditions noted are these: human CD45+ cells and CD34+CD38- stem cells in BM. How it is done: To assess WNT/beta-catenin activation in response to ADAR1 upregulation, a lentiviral TCF/LEF reporter was utilized in human blast crisis CML cells, K562^26. Lentiviral pCDH backbone, ADAR1^WT, shControl, and shADAR1 K562 stable cell lines were transduced with pGreenFire1-TCF/LEF1 reporter (SBI) lentivirus for 72-hours prior to CellTiter-Glo and One-Glo luciferase assays (Promega). A minimum of 50,000 cells were plated in duplicate, lysed according to the manufacturer's protocol, and measured using preloaded protocols on a Promega GloMax Discover Microplate Reader. One-Glo luciferase readouts were normalized to corresponding CellTiter-Glo values. Activated beta-catenin levels in HSC and HPCs were also quantified using a MACS Quant instrument following staining of cells with Viability Near-IR, Lineage PE-Cy5, CD45 BV510, CD34 BV421, CD38 PE-Cy7, GFP, and beta-catenin AF647 antibodies (Becton Dickinson, Inc). […] Mean fluorescence intensity (MF) of active beta-catenin in human CD45+ cells, HSCs (CD45^+CD34^+CD38^− Lin) and HPCs (CD45^+CD34^+CD38^+Lin^−) derived from engrafted bone marrow and spleen was determined with a Miltenyi Biotec MACS Quant flow cytometer.

Regarding imetelstat, the “activated beta-catenin expression / activity by FACS” value with beta-catenin [1] is “significant reduction; also recorded: significantly reduced”. Also, the “ADAR1-mediated adenosine to inosine RNA editing by RNA-seq” value in data set [2] was “significant reduction; also recorded: significantly reduced”. Also, the “effect on normal hematopoietic stem cells” value in data set [3] (at doses reducing malignant RNA editing) was “spared normal hematopoietic stem cells”. Further, in data set [3] (imetelstat 30 mg/kg vs vehicle and mismatch control, BM and spleen), the “normal cord blood engraftment (human CD45+ cells)” value is on record as “no significant decrease; also recorded: does not reduce”. Further, in the data set on beta-catenin [4], the “beta-catenin expression / activity in normal HSC engrafted mice” value is recorded as “no significant decrease; also recorded: does not reduce; also recorded: no significant difference”.
